Target: T1, soluble guanylate cyclase (human GUCYA3/GUCYB3) overexpressed in CHO cells (Homo sapiens, UniProt Q02108+Q02153)
T1 construct: expressed in transfected cells
T1 sequence (Q02108 1-690 partner): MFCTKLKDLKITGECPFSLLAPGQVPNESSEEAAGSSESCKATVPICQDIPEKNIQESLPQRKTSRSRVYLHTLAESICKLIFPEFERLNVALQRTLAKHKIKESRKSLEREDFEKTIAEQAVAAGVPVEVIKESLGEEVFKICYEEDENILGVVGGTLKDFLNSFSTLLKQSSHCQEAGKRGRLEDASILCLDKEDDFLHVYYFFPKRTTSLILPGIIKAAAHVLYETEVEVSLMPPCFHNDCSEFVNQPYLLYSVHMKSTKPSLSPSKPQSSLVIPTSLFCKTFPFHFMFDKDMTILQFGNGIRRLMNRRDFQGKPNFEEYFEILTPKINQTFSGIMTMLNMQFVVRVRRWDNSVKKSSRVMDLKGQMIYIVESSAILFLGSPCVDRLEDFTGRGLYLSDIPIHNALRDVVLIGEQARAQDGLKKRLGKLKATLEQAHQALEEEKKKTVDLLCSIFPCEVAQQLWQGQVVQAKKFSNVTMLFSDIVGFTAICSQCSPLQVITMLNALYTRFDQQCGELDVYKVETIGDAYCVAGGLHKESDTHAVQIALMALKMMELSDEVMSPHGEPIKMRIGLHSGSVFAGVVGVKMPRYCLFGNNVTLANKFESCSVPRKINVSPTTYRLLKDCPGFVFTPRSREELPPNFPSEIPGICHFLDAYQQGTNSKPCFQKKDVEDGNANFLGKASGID
T1 sequence (Q02153 1-619): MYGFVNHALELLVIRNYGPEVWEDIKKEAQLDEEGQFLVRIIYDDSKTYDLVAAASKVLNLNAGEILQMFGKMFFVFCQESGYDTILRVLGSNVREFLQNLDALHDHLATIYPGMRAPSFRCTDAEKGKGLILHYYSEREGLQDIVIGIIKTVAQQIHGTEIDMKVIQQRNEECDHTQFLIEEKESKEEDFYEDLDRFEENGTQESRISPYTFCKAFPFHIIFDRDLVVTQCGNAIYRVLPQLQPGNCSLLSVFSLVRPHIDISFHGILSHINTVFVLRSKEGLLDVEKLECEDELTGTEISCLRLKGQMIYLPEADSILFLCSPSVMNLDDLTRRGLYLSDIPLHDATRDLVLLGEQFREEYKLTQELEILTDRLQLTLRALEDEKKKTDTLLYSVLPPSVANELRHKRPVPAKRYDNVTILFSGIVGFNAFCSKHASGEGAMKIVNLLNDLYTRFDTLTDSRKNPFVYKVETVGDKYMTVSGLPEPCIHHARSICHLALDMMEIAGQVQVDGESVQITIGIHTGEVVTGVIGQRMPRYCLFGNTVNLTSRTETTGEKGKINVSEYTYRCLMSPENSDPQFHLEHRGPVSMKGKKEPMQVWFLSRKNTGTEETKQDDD
Test: CHO cellular assay (cGMP production, HTRF)
Format: cell-based
Conditions: CHO K1 clone 8E10 overexpressing human sGC, Cisbio HTRF, 1 h room temperature, 1 mM IBMX, 20 uM ODQ, minimum quantification limit 0.5 nM
Text: Chinese hamster ovary (CHO) cells overexpressing soluble guanylate cyclase were generated to test the effect of sGC activators in a cellular context. Human cDNAs for GUCYA3 (RefSeq: NM_000856.3) and GUCYB3 (RefSeq: NM_000857.1) were amplified by PCR from a HUVEC (Human Umbilical Vein Endothelial Cells) cDNA library and cloned into mammalian expression vectors. CHO K1 cells (ATCC CCL-61) were transfected using Lipofectamine 2000 following manufacturer's instructions and stably expressing clones were identified by antibiotic selection. CHO GUCY clone 8E10 was used for subsequent experiments.
Cells were seeded at a density of 3000 cells/well in white 384-well proxyplates (Perkin Elmer) and incubated overnight, then the medium was removed and cells were washed with assay buffer (HBSS, 0.1% BSA, 1 mM IBMX, 20 uM ODQ). sGC activators were serially diluted in DMSO, then diluted in assay buffer prior to adding to cells (10 ul/well, final DMSO concentration 0.5%). Cells were incubated with compounds for 1 h room temperature, then assayed for cGMP production using Cisbio cGMP HTRF kit (62GM2PEC) according to manufacturer's instructions.
The EC50s are calculated based on the amount of cGMP interpolated from the standard curve, using a 4-parameter sigmoidal dose-response.

| SMILES | EC50 |
| --- | --- |
| Cc1cc(C2CCN(C(=O)C3CC(O)C3)CC2)ccc1OCc1ccsc1-c1cccc(-n2ncc(C(=O)O)c2C(F)(F)F)n1 (stereo not drawn) [Example 12-5, 1-(6-(3-((4-(1-(3-Hydroxycyclobutanecarbonyl)piperidin-4-yl)-2-methylphenoxy)methyl)thiophen-2-yl)pyridin-2-yl)-5-(trifluoromethyl)-1H-pyrazole-4-carboxylic acid] | 46 nM |
| Cc1cc(C2CCN(C(=O)C3CC3)CC2)ccc1OCc1c(-c2cccc(-n3ncc(C(=O)O)c3C(F)(F)F)n2)sc(C)c1C [Example 6-8, 1-(6-(3-((4-(1-(Cyclopropanecarbonyl)piperidin-4-yl)-2-methylphenoxy)methyl)-4,5-dimethylthiophen-2-yl)pyridin-2-yl)-5-(trifluoromethyl)-1H-pyrazole-4-carboxylic acid] | ≤ 0.5 nM |
| CCc1cc(C2CCN(C(=O)C3CC3)CC2)ccc1OCc1cc(C)sc1-c1cccc(-n2ncc(C(=O)O)c2C(F)(F)F)n1 [Example 6-15, 1-(6-(3-((4-(1-(Cyclopropanecarbonyl)piperidin-4-yl)-2-ethylphenoxy)methyl)-5-methylthiophen-2-yl)pyridin-2-yl)-5-(trifluoromethyl)-1H-pyrazole-4-carboxylic acid] | 9.5 nM |
| Cc1cc(COc2ccc(C3CCN(C(=O)C4CC4)CC3)c(C(C)C)c2)c(-c2cccc(-n3ncc(C(=O)O)c3C(F)(F)F)n2)s1 [Example 6-12, 1-(6-(3-((4-(1-(Cyclopropanecarbonyl)piperidin-4-yl)-3-isopropylphenoxy)methyl)-5-methylthiophen-2-yl)pyridin-2-yl)-5-(trifluoromethyl)-1H-pyrazole-4-carboxylic acid] | 1 nM |
| Cc1cc(COc2ccc(C3CC(C)(C)N(C(=O)C4CC4)C(C)(C)C3)cc2C)c(-c2cccc(-n3ncc(C(=O)O)c3C(F)(F)F)n2)s1 [Example 6-10, 1-(6-(3-((4-(1-(Cyclopropanecarbonyl)-2,2,6,6-tetramethylpiperidin-4-yl)-2-methylphenoxy)methyl)-5-methylthiophen-2-yl)pyridin-2-yl)-5-(trifluoromethyl)-1H-pyrazole-4-carboxylic acid] | 1 nM |
| O=C(O)c1cnn(-c2cccc(-c3sccc3COc3ccc(C4CCN(C(=O)C5CC5)CC4)cc3Cl)n2)c1C(F)(F)F [Example 8, 1-(6-(3-((2-Chloro-4-(1-(cyclopropanecarbonyl)piperidin-4-yl)phenoxy)methyl)thiophen-2-yl)pyridin-2-yl)-5-(trifluoromethyl)-1H-pyrazole-4-carboxylic acid] | ≤ 0.5 nM |
| Cc1cc(C2CCN(C(=O)C3CCC3)CC2)ccc1OCc1ccsc1-c1cccc(-n2ncc(C(=O)O)c2C(F)(F)F)n1 [Example 12-1, 1-(6-(3-((4-(1-(Cyclobutanecarbonyl)piperidin-4-yl)-2-methylphenoxy)methyl)thiophen-2-yl)pyridin-2-yl)-5-(trifluoromethyl)-1H-pyrazole-4-carboxylic acid] | ≤ 0.5 nM |
| CCc1cc(OCc2ccsc2-c2cccc(-n3ncc(C(=O)O)c3CC)n2)ccc1C1CCN(C(=O)C2CC2)CC1 [Example 10-2, 1-(6-(3-((4-(1-(Cyclopropanecarbonyl)piperidin-4-yl)-3-ethylphenoxy)methyl)thiophen-2-yl)pyridin-2-yl)-5-ethyl-1H-pyrazole-4-carboxylic acid] | ≤ 0.5 nM |
| CCc1cc(OCc2ccsc2-c2cccc(-n3ncc(C(=O)O)c3C(F)(F)F)n2)ccc1C1CCN(C(=O)C2CC2)CC1 [Example 6-6, 1-(6-(3-((4-(1-(Cyclopropanecarbonyl)piperidin-4-yl)-3-ethylphenoxy)methyl)thiophen-2-yl)pyridin-2-yl)-5-(trifluoromethyl)-1H-pyrazole-4-carboxylic acid] | ≤ 0.5 nM |

The remaining lines, values ahead:

| EC50 | SMILES |
| --- | --- |
| 3 nM | Cc1cc(OCc2ccsc2-c2cccc(-n3ncc(C(=O)O)c3C(F)(F)F)n2)ccc1C1CCN(C(=O)C2CC2)CC1 [Example 35-5, 1-(6-(3-((4-(1-(Cyclopropanecarbonyl)piperidin-4-yl)-3-methylphenoxy)methyl)thiophen-2-yl)pyridin-2-yl)-5-(trifluoromethyl)-1H-pyrazole-4-carboxylic acid] |
| ≤ 0.5 nM | Cc1cc(COc2ccc(C3CCN(C(=O)C4CC4)CC3)cc2C(F)(F)F)c(-c2cccc(-n3ncc(C(=O)O)c3C(F)(F)F)n2)s1 [Example 32, 1-(6-(3-((4-(1-(Cyclopropanecarbonyl)piperidin-4-yl)-2-(trifluoromethyl)phenoxy)methyl)-5-methylthiophen-2-yl)pyridin-2-yl)-5-(trifluoromethyl)-1H-pyrazole-4-carboxylic acid] |
| 2 nM | CCc1c(C(=O)O)cnn1-c1cccc(-c2sc(C)c(C)c2COc2ccc(C3CCN(CC(F)(F)F)CC3)cc2C)n1 [Example 18-3, 1-(6-(4,5-Dimethyl-3-((2-methyl-4-(1-(2,2,2-trifluoroethyl)piperidin-4-yl)phenoxy)methyl)thiophen-2-yl)pyridin-2-yl)-5-ethyl-1H-pyrazole-4-carboxylic acid] |
| ≤ 0.5 nM | O=C(O)c1cnn(-c2cccc(-c3sccc3CCc3ccc(C4CCN(C(=O)C5CC5)CC4)cc3)n2)c1C(F)(F)F [Example 27, 1-(6-(3-(4-(1-(Cyclopropanecarbonyl)piperidin-4-yl)phenethyl)thiophen-2-yl)pyridin-2-yl)-5-(trifluoromethyl)-1H-pyrazole-4-carboxylic acid] |
| 1 nM | Cc1cc(CNc2ccc(C3CCN(C(=O)C4CC4)CC3)cc2C)c(-c2cccc(-n3ncc(C(=O)O)c3C)n2)s1 [Example 16-2, 1-(6-(3-(((4-(1-(Cyclopropanecarbonyl)piperidin-4-yl)-2-methylphenyl)amino)methyl)-5-methylthiophen-2-yl)pyridin-2-yl)-5-methyl-1H-pyrazole-4-carboxylic acid] |
| 5.9 nM | CCc1csc(-c2cccc(-n3ncc(C(=O)O)c3C(F)(F)F)n2)c1COc1ccc(C2CCN(C(=O)C3CC3)CC2)cc1C [Example 18-4, 1-(6-(3-((4-(1-(Cyclopropanecarbonyl)piperidin-4-yl)-2-methylphenoxy)methyl)-4-ethylthiophen-2-yl)pyridin-2-yl)-5-(trifluoromethyl)-1H-pyrazole-4-carboxylic acid] |
| 160 nM | Cc1cc(COc2ccc(C3CCN(C(=O)C4CC4)CC3O)cc2)c(-c2cccc(-n3ncc(C(=O)O)c3C(F)(F)F)n2)s1 (racemic) [Example 35-11, (±)-trans-1-(6-(3-((4-(1-(Cyclopropanecarbonyl)-3-hydroxypiperidin-4-yl)phenoxy)methyl)-5-methylthiophen-2-yl)pyridin-2-yl)-5-(trifluoromethyl)-1H-pyrazole-4-carboxylic acid] |
| 1 nM | Cc1cc(C2CCN(CC(F)(F)F)CC2)ccc1OCc1ccsc1-c1cccc(-n2ncc(C(=O)O)c2C(F)(F)F)n1 [Example 13, 1-(6-(3-((2-Methyl-4-(1-(2,2,2-trifluoroethyl)piperidin-4-yl)phenoxy)methyl)thiophen-2-yl)pyridin-2-yl)-5-(trifluoromethyl)-1H-pyrazole-4-carboxylic acid] |
| 4.5 nM | O=C(O)c1cnn(-c2cccc(-c3sccc3CNc3ccc(C4CCN(C(=O)C5CC5)CC4)cc3)n2)c1C(F)(F)F [Example 28, 1-(6-(3-(((4-(1-(Cyclopropanecarbonyl)piperidin-4-yl)phenyl)amino)methyl)thiophen-2-yl)pyridin-2-yl)-5-(trifluoromethyl)-1H-pyrazole-4-carboxylic acid] |
